According to PubChem BioAssay AID1159558 (GlaxoSmithKline (GSK), 2015):
pIC50: −log10 of the molar value. Active and inactive are the calls of the source.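 The calls were made as follows: active = IC50 against T. cruzi CYP51 below a set limit; inactive = the rest.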

Biological target: Sterol 14-alpha demethylase (Trypanosoma cruzi (strain CL Brener)) (UniProt Q7Z1V1)
Assay: T. cruzi sterol 14-alpha demethylase inhibition – biochemical, recombinant enzyme, mechanism study for T. cruzi antiparasitic project, dose response (AID 1159558);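 also: enzyme in bacterial membranes with Anopheles gambiae CYP reductase and cytochrome b5 partners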
Details: recombinant T. cruzi CYP51, BOMCC fluorescence

Chain of Sterol 14-alpha demethylase (Trypanosoma cruzi (strain CL Brener)) (Q7Z1V1 whole entry, looked up): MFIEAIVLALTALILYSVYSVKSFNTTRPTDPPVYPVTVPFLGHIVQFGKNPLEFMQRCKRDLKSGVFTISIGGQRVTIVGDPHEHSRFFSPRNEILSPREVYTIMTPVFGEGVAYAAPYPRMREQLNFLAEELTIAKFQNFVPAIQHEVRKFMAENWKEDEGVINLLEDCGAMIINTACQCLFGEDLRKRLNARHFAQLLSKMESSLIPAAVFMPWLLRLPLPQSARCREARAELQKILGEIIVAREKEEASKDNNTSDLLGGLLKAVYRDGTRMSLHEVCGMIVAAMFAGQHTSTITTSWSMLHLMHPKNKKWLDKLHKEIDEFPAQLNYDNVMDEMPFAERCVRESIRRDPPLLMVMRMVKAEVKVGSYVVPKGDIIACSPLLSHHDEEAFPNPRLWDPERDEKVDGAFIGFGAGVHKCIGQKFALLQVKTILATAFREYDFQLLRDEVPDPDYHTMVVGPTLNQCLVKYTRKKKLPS

COc1ccccc1-n1c(SCC(=O)Nc2ccc3c(c2)OCO3)nc2c(c1=O)SCC2
pIC50: 4.20

C=CCN(Cc1cccs1)C(=O)CSc1nnc(-c2ccc3c(c2)OCO3)o1
pIC50: 5.10

CC(c1cc(Cl)cc(Cl)c1)N(C)c1ncc2c(N)nc(N)nc2n1 (stereo not given)
pIC50: 4.40

COc1ccc(-c2nc3ncccc3o2)cc1NC(=O)c1cccs1
IC50: > 100 µM (inactive)

O=c1cc(NCCCNCc2cc(C(F)(F)F)cs2)[nH]c2ccccc12
pIC50: 4.60

Cn1nc([N+](=O)[O-])nc1Oc1ccc(C(=O)c2ccccc2)cc1
IC50: > 100 µM (inactive)

Cn1cncc1CN1CCC2(CC1)COC(Cc1ccccc1)C2 (stereo not given)
pIC50: 6.00

CN(C)CCN(C)Cc1ccc(Cl)cc1NS(=O)(=O)c1ccc(Cl)c(Cl)c1
pIC50: 4.49

O=C1CCCCCC1(Cc1cnc[nH]1)c1ccc(Cl)cc1Cl (stereo not given)
pIC50: 7.00

O=C(CN1CCC2(O)CCCCC2C1c1ccc2c(c1)OCO2)Nc1ccc(Cl)cc1Cl (stereo not given)
pIC50: 4.89

Cc1c(C(C)NC(=O)Nc2cccc(Cl)c2)sc2ncnn12 (stereo not given)
pIC50: 6.89

COc1ccc(CNc2cc(C3CC3)nc(-c3nccn3C)n2)cc1
pIC50: 5.30

COc1ccc2ncc(F)c(NC(=O)C3(O)CCC(NCc4ccc5c(c4)OCCO5)CC3)c2n1 (stereo not given)
pIC50: 4.20

O=C(Cc1ccccc1)Nc1ccccc1C(=O)Nc1nccs1
IC50: > 100 µM (inactive)

O=C(CCc1ccc(-c2ccccc2)o1)N1CCN(c2ccc(O)cc2)CC1
pIC50: 5.60

COc1cc(F)c2ncc(F)c(CCN3CC[C@H](NCc4cc5c(cn4)OCS5)[C@@H](O)C3)c2c1
pIC50: 4.49

O=C(NCCc1csc(-c2ccc(F)cc2)n1)c1cccs1
pIC50: 4.60

CC(C)Nc1nc(Cl)nc2ccccc12
IC50: > 100 µM (inactive)

N#Cc1cccc(CNc2ccc(-c3cnn(CC4CC4)c(=O)c3C#N)cc2)c1
pIC50: 5.20

CCOc1ccc(CC(=O)N2c3ccccc3CC2C(=O)NC)cc1 (stereo not given)
IC50: > 100 µM (inactive)

CS(=O)(=O)N1CCC(Nc2ncc(Br)c(Nc3cccc(F)c3C(N)=O)n2)CC1
IC50: > 100 µM (inactive)

CN(Cc1nnnn1C1CCN(Cc2ccc(-n3ccnc3)cc2)CC1)c1ccc(F)cc1F
pIC50: 6.89

CC1(Oc2cncc(Cl)c2)CCN(Cc2cc3ccccc3[nH]2)C1 (stereo not given)
pIC50: 5.00

CCc1cccc(CC)c1-n1c(SCC(=O)N2CC(=O)Nc3ccccc32)nnc1-c1cccnc1
pIC50: 5.49

c1ccc(Nc2nc3ccccc3[nH]2)nc1
IC50: > 100 µM (inactive)

COc1ccc2ncc(=O)n(CCN3CCC(NCc4ccc(-c5cccs5)cc4)CC3)c2n1
pIC50: 4.60

Cc1cc(NC(=O)C2CCCCC2)n(-c2nc3c(c(=O)[nH]2)CCC3)n1
IC50: > 100 µM (inactive)

Cc1cccc(NS(=O)(=O)c2ccc3c(c2)C(=O)c2cc(S(=O)(=O)Nc4cccc(C)c4C)ccc2-3)c1C
IC50: > 100 µM (inactive)

COc1ccc(-c2cnc(C)o2)cc1S(=O)(=O)Nc1ccc(C)cc1C
pIC50: 4.60

CCOc1ccc(N(C)S(=O)(=O)c2ccc3[nH]cc(C(=O)NC4CCCC4)c(=O)c3c2)cc1
pIC50: 5.20

COc1ccc(-c2cc(C)no2)cc1S(=O)(=O)Nc1ccc(C)c(C)c1
pIC50: 4.80

Cc1nc(N2CC(C)OC(C)C2)sc1C(=O)Nc1ccc2c(c1)OCO2 (stereo not given)
pIC50: 4.40

Cc1[nH]nc(Nc2ccnc3[nH]ccc23)c1C
pIC50: 4.10

O=C(CN(Cc1ccccn1)Cc1ccccn1)NCc1csc(-c2cccs2)n1
pIC50: 4.40

CC(C)c1cc(Nc2cc(Cc3ccccc3)nc(NC3CCC(O)CC3)n2)n[nH]1 (stereo not given)
pIC50: 4.70

COc1ccc(C(=O)Nc2c(C)nn(COc3cccc(C(F)(F)F)c3)c2C)cc1
pIC50: 4.89

CC(Cn1ccnc1)NC(=O)C1CC1c1cccc(Cl)c1Cl (stereo not given)
pIC50: 6.89

COc1ccc(-c2cnc(NC(=O)c3ccc(F)cc3)n2C)cc1
pIC50: 5.00

O=C(Nc1ccc(C(=O)N2CCCC2c2ccc3c(c2)OCCCO3)cc1)c1ccco1 (stereo not given)
pIC50: 4.20

c1ccc(-c2nc(NCc3ccco3)c3ccccc3n2)nc1
IC50: > 100 µM (inactive)

Clc1ccc(C(CC2CCCCO2)Cn2cncn2)c(Cl)c1 (stereo not given)
pIC50: 6.60

COc1ccc(Nc2nc(-c3ccccn3)cc(N3CCCC(O)C3)n2)cc1 (stereo not given)
pIC50: 4.30

COCc1cnc2c(c1SCc1c(F)cccc1Cl)c(=O)n(C)c(=O)n2C
pIC50: 4.60

COc1ccc(C(C)(C)C)cc1S(=O)(=O)n1ccnc1
pIC50: 8.10

CCCc1cc(N)nc(-c2cc(CCC)cc(N)n2)c1
IC50: > 100 µM (inactive)

CC(C)(C)CC(=O)NCc1noc(COc2ccccc2)n1
pIC50: 4.30

Cn1ccnc1CN1CCc2[nH]cnc2C1c1ccccc1OCc1ccccc1 (stereo not given)
pIC50: 5.10

Cc1nc(-c2ccc3c(c2)OCO3)sc1C(=O)NCc1ccc2c(c1)OCO2
pIC50: 5.30

O=C(NCC1CCCCC1)c1cc(=O)c2ccccc2o1
IC50: > 100 µM (inactive)

COc1ccc(Cc2nc(-c3ncc4cccnc4c3O)n[nH]2)cc1OC
IC50: > 100 µM (inactive)

O=C(Cn1cnc2cc([N+](=O)[O-])ccc2c1=O)NCCc1ccc(Cl)cc1Cl
IC50: > 100 µM (inactive)

COc1ccc([N+](=O)[O-])cc1NC(=O)Nc1cccc(Cl)c1
IC50: > 100 µM (inactive)

O=C(CC1(O)C(=O)N(Cc2ccccc2)c2ccc(Br)cc21)c1cccnc1 (stereo not given)
pIC50: 5.40

CC(C)COC(=O)Nc1ccc(N2CCC(CNS(=O)(=O)c3ccccc3)CC2)c(F)c1
pIC50: 5.70

O=C(Nc1nc(-c2ccccn2)cs1)c1ccccc1-n1cnnn1
IC50: > 100 µM (inactive)

COc1ccc(-c2nc3ccncc3c(=O)n2CCOc2ccccc2)cc1
pIC50: 7.40

CC(C)Oc1ccc(C(=O)Nc2ccc(N3CCOCC3)c(Cl)c2)cc1
IC50: > 100 µM (inactive)

Cc1ccc(NC(=O)c2ccnc(N3CCCC3)c2)cc1-c1cc(C(N)=O)ccc1C
pIC50: 5.40

O=C(Nc1nc(-c2ccc(F)cc2)cs1)c1ccc([N+](=O)[O-])s1
pIC50: 4.30

CC(Cn1ccnc1)NC(=O)COc1ccc(Cl)c(Cl)c1 (stereo not given)
pIC50: 7.20

O=C(c1ccc(OCCCc2cnc[nH]2)cc1)C1CC1
pIC50: 7.30

O=C(Nc1cccc(S(=O)(=O)Nc2ccc(Br)cc2)c1)c1ccc([N+](=O)[O-])s1
pIC50: 5.60

O=C(c1ccc(Cl)cc1)c1ccc(OC(=O)N2CCOCC2)cc1
pIC50: 4.40

CNc1c(C(N)=O)c(-c2ccc3scnc3c2)nn1CC(F)(F)F
IC50: > 100 µM (inactive)

O=[N+]([O-])c1ccc(C2=CC(c3ccccc3)=NCCN2)cc1
pIC50: 4.30

CCc1nn(-c2ncc(F)c(NC(C)C)n2)c(N)c1C1CCCCC1
IC50: > 100 µM (inactive)

N#Cc1ccc(Br)cc1[N+](=O)[O-]
pIC50: 4.30

Cc1cc(-c2cccc3ccccc23)nc2nc(N)nc(N)c12
IC50: > 100 µM (inactive)

O=C(NCC(c1cccnc1)N1CCc2ccccc2C1)C(=O)Nc1cccc(Cl)c1 (stereo not given)
pIC50: 7.20

Cc1c(Nc2cc(C3CC3)[nH]n2)ccc(C#N)c1Cl
pIC50: 4.70

CC1=NN(C(=O)CCn2cnc([N+](=O)[O-])n2)C(O)(C(F)(F)F)C1 (stereo not given)
IC50: > 100 µM (inactive)

c1ccc(-c2nc(NC3CCCCC3)cc(C3CC3)n2)nc1
IC50: > 100 µM (inactive)

O=C(Cn1cnc([N+](=O)[O-])n1)Nc1ccc(Cl)cc1C(=O)c1ccccc1
pIC50: 5.00

CCOC(=O)c1cn[nH]c1S(=O)(=O)N1CCC1c1ccccc1 (stereo not given)
pIC50: 4.30

CCCC(=O)N(Cc1ccccn1)c1nc2ccccc2s1
pIC50: 7.30

O=C(c1ccccc1)N1CCC(C(=O)N2CCC(Oc3ccccc3Cl)CC2)CC1
pIC50: 4.70

OCCCNc1nc(Nc2ccncc2)nc2ccccc12
IC50: > 100 µM (inactive)

Cc1nc(C(=O)Nc2ccc3c(c2)OCO3)nn1-c1ccc(F)cc1
pIC50: 4.40

O=c1cc(CSc2ccc(Cl)cc2)nc(-c2ccccn2)[nH]1
pIC50: 4.20

O=C(Nc1ccc(C(F)(F)F)cc1)Nc1cccc([N+](=O)[O-])c1
pIC50: 5.20

COc1cccc(C(=O)[C@H]2C[C@@H]2CN(Cc2ccccn2)Cc2ccccn2)c1
pIC50: 4.49

Cc1[nH]nc(C(F)(F)F)c1NC(=O)CCn1cc(Cl)c([N+](=O)[O-])n1
IC50: > 100 µM (inactive)

CCc1c(C)nc(-n2nc(C)cc2NC(=O)COc2ccccc2F)[nH]c1=O
IC50: > 100 µM (inactive)

CN(C(=O)Nc1ccc2c(c1)CCN(C1CCC1)CC2)c1ccc(C#N)cc1
IC50: > 100 µM (inactive)

O=C(Nc1nc(-c2ccccn2)cs1)N1C[C@H]2C[C@@]2(c2ccccc2)C1
pIC50: 4.40

CS(=O)(=O)NC1CCC(Oc2cc3cnccc3cc2-c2ccsc2)CC1 (stereo not given)
pIC50: 7.60

C=CCOCC1Cn2nc([N+](=O)[O-])nc2O1 (stereo not given)
IC50: > 100 µM (inactive)

COc1ccc(OC)c(S(=O)(=O)N(Cc2c(F)cccc2F)[C@@H]2CCN(C#N)C2)c1
IC50: > 100 µM (inactive)

COc1ccccc1C=CCN1C[C@H]2CCC[C@@H](C1)C2(O)c1cccnc1 (stereo not given in full)
pIC50: 6.89

Cc1cnc(Nc2cc(Cc3ccccc3)nc(NC3CCC(O)CC3)n2)s1 (stereo not given)
IC50: > 100 µM (inactive)

CC(C(=O)Nc1ccc(Br)cc1)N1CCN(c2ccc([N+](=O)[O-])cc2)CC1 (stereo not given)
pIC50: 4.40

Cc1ccccc1NS(=O)(=O)c1ccc2[nH]cc(C(=O)NC3CCCC(C)C3C)c(=O)c2c1 (stereo not given)
pIC50: 5.30

CCCNC(=O)Nc1cccc(-c2nc3ncccc3o2)c1
IC50: > 100 µM (inactive)

CCCc1nc2nc(N)nc(N)c2cc1CC
IC50: > 100 µM (inactive)

CC(C)(C)C(Cn1ccnc1)NC(=O)c1ccc2nc(C3CC3)oc2c1 (stereo not given)
pIC50: 7.00

O=C(N1CCc2ccccc2CC1)C1(C(=O)N2CCC(n3c(=O)[nH]c4ncccc43)CC2)CC1
pIC50: 6.49

CC(=O)Nc1ccc(Nc2nccc(-c3cnn4ncccc34)n2)cc1C(F)(F)F
pIC50: 4.49

CCN(Cc1ccncc1)Cc1ccc(NC(=O)c2cc(-c3ccc(F)cc3)n[nH]2)cc1
pIC50: 7.10

CN(C)S(=O)(=O)c1ccc(Cl)c(C(=O)Nc2nc(-c3ccccn3)cs2)c1
pIC50: 4.49

CCC(CC)C(=O)Nc1cccc(C(=O)Nc2nnc(C3CCCCC3)s2)c1
IC50: > 100 µM (inactive)

COc1cccc(CN(C)Cc2nc(N)c3c(C)c(C)sc3n2)c1
IC50: > 100 µM (inactive)

COc1cccc(C(=O)[C@H]2C[C@@H]2CN(Cc2cccnc2)Cc2cccnc2)c1
pIC50: 7.20

Cc1nccn1C1CCCN(C(=O)c2cc3c(F)cccc3s2)C1 (stereo not given)
pIC50: 4.30

Cc1c([N+](=O)[O-])c(C(=O)Nc2sc3c(c2C#N)CCC(C)C3)nn1C (stereo not given)
IC50: > 100 µM (inactive)

COc1cnc2ccc(=O)n(CCN3CCC(NC(=O)Cc4ccc(Cl)c(Cl)c4)CC3)c2c1
pIC50: 6.10
